Data taken from ChEMBL document CHEMBL4196012 (Eur J Med Chem, 2018).
Values after ≈ are worked out from the molar mass of the structure shown.

Experiments:
Escherichia coli [1] = test: Antibacterial activity against Escherichia coli ATCC 8739 after 18 hrs by agar dilution method; assay type: functional; settings: ATCC 8739, 18 h
Staphylococcus aureus [2] = test: Antibacterial activity against methicillin-resistant Staphylococcus aureus isolate 1 after 18 hrs by agar dilution method; assay type: functional; settings: isolate 1, 18 h
[3] = system: Staphylococcus epidermidis; test: Antibacterial activity against Staphylococcus epidermidis ATCC 12228 after 18 hrs by agar dilution method; assay type: functional; settings: ATCC 12228, 18 h
Staphylococcus aureus [4] = test: Antibacterial activity against methicillin-resistant Staphylococcus aureus isolate 2 after 18 hrs by agar dilution method; assay type: functional; settings: isolate 2, 18 h
Pseudomonas aeruginosa = test: Antibacterial activity against Pseudomonas aeruginosa ATCC 9027 after 18 hrs by agar dilution method; assay type: functional; settings: ATCC 9027, 18 h
Bacillus spizizenii = test: Antibacterial activity against Bacillus subtilis ATCC 6633 after 18 hrs by agar dilution method; assay type: functional; settings: ATCC 6633, 18 h
Klebsiella pneumoniae = test: Antibacterial activity against Klebsiella pneumoniae ATCC 10031 after 18 hrs by agar dilution method; assay type: functional; settings: ATCC 10031, 18 h
Staphylococcus aureus [5] = test: Antibacterial activity against Staphylococcus aureus ATCC 6538p after 18 hrs by agar dilution method; assay type: functional
Bacillus subtilis = test: Antibacterial activity against Bacillus subtilis PTCC 1023 by agar dilution method; assay type: functional
[6] = system: Staphylococcus epidermidis; test: Antibacterial activity against Staphylococcus epidermidis ATCC 12228 by agar dilution method; assay type: functional
Enterococcus faecium = test: Antibacterial activity against vancomycin and quinolone-resistant Enterococcus faecium after 16 to 20 hrs by NCCLS microdilution method; assay type: functional
Streptococcus pneumoniae = test: Antibacterial activity against quinolone-resistant Streptococcus pneumoniae after 16 to 20 hrs by NCCLS microdilution method; assay type: functional
Escherichia coli [7] = test: microbe, parasite or virus in culture; settings: NCTC 10419
Staphylococcus aureus [8] = test: Antibacterial activity against Staphylococcus aureus ATCC 6538P by agar dilution method; assay type: functional
Staphylococcus aureus [9] = test: Antibacterial activity against quinolone-resistant Staphylococcus aureus after 16 to 20 hrs by NCCLS microdilution method; assay type: functional
Escherichia coli [10] = test: In vivo antibacterial activity against Escherichia coli NCTC 10419 infected in po dosed mouse administered at 1 and 4 hrs post infection; assay type: functional, organism-based

O=C(CN1CCN(c2cc3c(cc2F)c(=O)c(C(=O)O)cn3C2CC2)CC1)c1cc2ccccc2oc1=O
MIC (Escherichia coli [1]): 0.025 to 1.56 µg/mL (≈ 0.0483 to 3.01 µM) | MIC (Staphylococcus aureus [2]): 0.025 to 1.56 µg/mL (≈ 0.0483 to 3.01 µM) | MIC [3]: 0.025 to 1.56 µg/mL (≈ 0.0483 to 3.01 µM) | MIC (Staphylococcus aureus [4]): 0.025 to 1.56 µg/mL (≈ 0.0483 to 3.01 µM) | MIC (Pseudomonas aeruginosa): 0.025 to 1.56 µg/mL (≈ 0.0483 to 3.01 µM) | MIC (Bacillus spizizenii): 0.025 to 1.56 µg/mL (≈ 0.0483 to 3.01 µM) | MIC (Klebsiella pneumoniae): 0.025 to 1.56 µg/mL (≈ 0.0483 to 3.01 µM) | MIC (Staphylococcus aureus [5]): 0.025 to 1.56 µg/mL (≈ 0.0483 to 3.01 µM)

O=C(O)c1cn(C2CC2)c2cc(N3CCNCC3)c(F)cc2c1=O [CIPROFLOXACIN]
MIC (Bacillus subtilis): 0.015 to 0.5 µg/mL (≈ 0.0453 to 1.51 µM) | MIC [6]: 0.015 to 0.5 µg/mL (≈ 0.0453 to 1.51 µM) | MIC (Enterococcus faecium): ≥ 32 µg/mL | MIC (Streptococcus pneumoniae): ≥ 32 µg/mL | MIC (Escherichia coli [7]): 1.1 nM (≈ 0.364 ng/mL) | MIC (Staphylococcus aureus [8]): 0.015 to 0.5 µg/mL (≈ 0.0453 to 1.51 µM) | MIC (Staphylococcus aureus [9]): ≥ 32 µg/mL | EC50 (Escherichia coli [10]): 1.25 mg/kg
